Source: US20080234368A9, “Therapeutic compositions and methods of use” (Trustees of Dartmouth College, priority 1998, published 2008)

Experiments:
[1] = tested on: COX-2; assay: Western blot for COX-2 protein in stimulated primary macrophages; format: cell-based, mouse; conditions: concentrations of 1 μM or less; IFN-γ 10 ng/ml, LPS 2 ng/ml, 12 h
Protocol: (§1) FIG. 14(A) illustrates Western blots; primary mouse macrophages; IFN-γ, 10 ng/ml; LPS, 2 ng/ml were added to cultures together with triterpenoids or dexamethasone (concentrations shown as […]); cells were harvested at 12 h. FIG. 14(B) illustrates Northern blots, RAW 264.7 macrophage-like cell line. IFN-γ, 10 ng/ml; LPS, 1 ng/ml; TNF-α, 10 ng/ml, were added to cultures together with CDDO or dexamethasone. RNA prepared after 12 h; GAPDH used as a loading control. FIG. 14(C) illustrates suppression of production of NO and PGEF in primary macrophages. For NO studies, cells were treated with IFN-γ, 10 ng/ml, together with CDDO (M), dexamethasone (O), TP-82 (□), or oleanolic acid (A). After 48 h, supernatants were analyzed for NO by the Griess reaction. For PGEF studies, cells were treated with IFN-γ, 5 ng/ml, and LPS, 5 ng/ml, together with the same set of inhibitors. After 48 h, PGE was measured in supernatants by immunoassay. Control values (no inhibition) for NO and PGE2 were 4.7 nmol/[…] and 2.2 ng/ml/2×10^5 cells, respectively. FIGS. (14D) and (14E) illustrate (human colon myofibroblasts) ^18Co cells grown in MEM/10% FBS; other methods are the same as reported above for macrophages. FIG. 14(D) illustrates Northern blots showing dose-response for suppression of COX-2 mRNA after induction with IL-1β (30 pg/ml). CDDO was added together with IL-1. […]

[2] = tested on: COX-2 mRNA; assay: Northern blot for COX-2 mRNA in RAW 264.7 cells; format: cell-based, mouse; conditions: CDDO 10^−6 M, RAW 264.7, 12 h
Protocol: as §1

[3] = tested on: iNOS; assay: Western blot for iNOS protein in stimulated primary macrophages; format: cell-based, mouse; conditions: concentrations of 1 μM or less; IFN-γ 10 ng/ml, LPS 2 ng/ml, 12 h
Protocol: as §1

[4] = tested on: COX-2; assay: TPA-induced COX-2 in 184B5/HER mammary epithelial cells; format: cell-based, human; conditions: 184B5/HER cells
Source text: These cells were selected because of the importance of stromal cell COX-2 in colon carcinogenesis (Oshima et al., 1996). […] Although CDDO effectively blocks the induction of COX-2 by agents such as IFN-γ, LPS, TNF-α, and IL-1, CDDO is ineffective when TPA is used as the inducer of COX-2. This has been seen in 18Co cells, as well as in the human mammary epithelial cell line, 184B5/HER (Zhai et al., 1993).

## CC1(C)CC[C@]2(C(=O)O)CC[C@]3(C)[C@H](C(=O)C=C4[C@@]5(C)C=C(C#N)C(=O)C(C)(C)[C@@H]5CC[C@]43C)[C@@H]2C1 [Compound 6, 2-cyano-3,12-dioxoolean-1,9-dien-28-oic acid]
[1]
  expression of COX-2 protein: blocked expression
[2]
  lowering of COX-2 mRNA expression: greater than 75%
[3]
  expression of iNOS protein: blocked expression
[4]
  blocking of COX-2 induction with TPA as inducer: ineffective
